# In the OligoGym collection:
# HELM strings list units from the 5' end as sugar, base in round brackets, then linkage (d deoxyribose, r ribose, m 2'-O-methyl, p phosphodiester). Strings are as the collection lists them, not checked against the first reports. ss, as = sense and antisense strand; [una] = unlocked nucleic acid; [s4r] = 4'-thioribose; [fl2r] = 2'-fluoro
# Details: siRNA
# Further: test system not given here.
row,Substance,target mRNA knockdown [%]
1,RNA1{r(C)p.r(G)p.r(U)p.r(A)p.r(C)p.r(G)p.r(C)p.r(G)p.r(G)p.r(A)p.r(A)p.r(U)p.r(A)p.r(C)p.r(U)p.r(U)p.r(C)p.r(G)p.r(A)p.r(T)p.r(T)}|RNA2{r(U)p.[s4r](C)p.r(G)p.r(A)p.r(A)p.r(G)p.r(U)p.r(A)p.r(U)p.r(U)p.[s4r](C)p.[s4r](C)p.r(G)p.[s4r](C)p.r(G)p.r(U)p.r(A)p.[s4r](C)p.r(G)p.r(T)p.r(T)}$$$RNA1{StrandType:ss}|RNA2{StrandType:as}$,68.5
2,RNA1{r(C)p.r(G)p.r(U)p.r(A)p.r(C)p.r(G)p.r(C)p.r(G)p.r(G)p.r(A)p.r(A)p.r(U)p.r(A)p.r(C)p.r(U)p.r(U)p.r(C)p.r(G)p.r(A)p.r(T)p.r(T)}|RNA2{r(U)p.r(C)p.r(G)p.r(A)p.r(A)p.r(G)p.[s4r](U)p.[s4r](A)p.[s4r](U)p.[s4r](U)p.[s4r](C)p.[s4r](C)p.[s4r](G)p.r(C)p.r(G)p.r(U)p.r(A)p.r(C)p.r(G)p.r(T)p.r(T)}$$$RNA1{StrandType:ss}|RNA2{StrandType:as}$,36.5
3,RNA1{r(C)p.r(G)p.r(U)p.r(A)p.r(C)p.r(G)p.r(C)p.r(G)p.r(G)p.r(A)p.r(A)p.r(U)p.r(A)p.r(C)p.r(U)p.r(U)p.r(C)p.r(G)p.r(A)p.r(T)p.r(T)}|RNA2{r(U)p.r(C)p.r(G)p.r(A)p.r(A)p.r(G)p.r(U)p.r(A)p.r(U)p.r(U)p.r(C)p.r(C)p.r(G)p.[s4r](C)p.[s4r](G)p.[s4r](U)p.[s4r](A)p.[s4r](C)p.[s4r](G)p.r(T)p.r(T)}$$$RNA1{StrandType:ss}|RNA2{StrandType:as}$,72.2
4,RNA1{r(C)p.r(G)p.r(U)p.r(A)p.r(C)p.r(G)p.r(C)p.r(G)p.r(G)p.r(A)p.r(A)p.r(U)p.r(A)p.r(C)p.r(U)p.r(U)p.r(C)p.r(G)p.r(A)p.r(T)p.r(T)}|RNA2{r(U)p.r(C)p.r(G)p.r(A)p.r(A)p.r(G)p.r(U)p.r(A)p.r(U)p.r(U)p.r(C)p.r(C)p.r(G)p.m(C)p.m(G)p.m(U)p.m(A)p.m(C)p.m(G)p.r(T)p.r(T)}$$$RNA1{StrandType:ss}|RNA2{StrandType:as}$,30.8
5,RNA1{r(C)p.r(G)p.r(U)p.r(A)p.r(C)p.r(G)p.r(C)p.r(G)p.r(G)p.r(A)p.r(A)p.r(U)p.r(A)p.r(C)p.r(U)p.r(U)p.r(C)p.r(G)p.r(A)p.r(T)p.r(T)}|RNA2{r(U)p.r(C)p.r(G)p.r(A)p.r(A)p.r(G)p.r(U)p.r(A)p.r(U)p.r(U)p.r(C)p.r(C)p.r(G)p.r(C)p.r(G)p.[s4r](U)p.[s4r](A)p.[s4r](C)p.[s4r](G)p.r(T)p.r(T)}$$$RNA1{StrandType:ss}|RNA2{StrandType:as}$,85.6
6,RNA1{r(C)p.r(G)p.r(U)p.r(A)p.r(C)p.r(G)p.r(C)p.r(G)p.r(G)p.r(A)p.r(A)p.r(U)p.r(A)p.r(C)p.r(U)p.r(U)p.r(C)p.r(G)p.r(A)p.r(T)p.r(T)}|RNA2{r(U)p.r(C)p.r(G)p.r(A)p.r(A)p.r(G)p.r(U)p.r(A)p.r(U)p.r(U)p.r(C)p.r(C)p.r(G)p.r(C)p.r(G)p.r(U)p.r(A)p.[s4r](C)p.[s4r](G)p.r(T)p.r(T)}$$$RNA1{StrandType:ss}|RNA2{StrandType:as}$,90.2
7,RNA1{r(C)p.r(U)p.[fl2r](A)p.[fl2r](A)p.r(G)p.r(C)p.r(C)p.r(U)p.r(G)p.[fl2r](U)p.r(U)p.r(U)p.r(C)p.r(U)p.r(U)p.r(C)p.r(C)p.r(U)p.r(C)p.r(T)p.r(T)}|RNA2{r(G)p.r(A)p.r(G)p.r(G)p.r(A)p.r(A)p.r(G)p.r(A)p.r(A)p.r(A)p.r(C)p.r(A)p.r(G)p.r(G)p.r(C)p.r(U)p.[fl2r](U)p.r(A)p.r(G)p.r(T)p.r(T)}$$$RNA1{StrandType:ss}|RNA2{StrandType:as}$,85
8,RNA1{r(C)p.r(U)p.[fl2r](A)p.r(G)p.r(A)p.r(G)p.r(G)p.r(A)p.r(U)p.r(C)p.r(U)p.r(U)p.r(G)p.r(A)p.r(A)p.r(G)p.r(A)p.r(C)p.r(C)p.r(T)p.r(T)}|RNA2{r(G)p.r(G)p.r(U)p.r(C)p.r(U)p.r(U)p.r(C)p.r(A)p.r(A)p.r(G)p.r(A)p.r(U)p.r(C)p.r(C)p.r(U)p.r(C)p.[fl2r](U)p.r(A)p.r(G)p.r(T)p.r(T)}$$$RNA1{StrandType:ss}|RNA2{StrandType:as}$,82
9,RNA1{r(C)p.r(U)p.m(C)p.r(A)p.r(A)p.r(A)p.r(U)p.m(C)p.r(A)p.r(A)p.r(G)p.r(G)p.r(C)p.r(C)p.r(G)p.r(G)p.r(A)p.r(G)p.r(U)p.r(T)p.r(T)}|RNA2{r(A)p.r(C)p.r(U)p.r(C)p.r(C)p.r(G)p.r(G)p.r(C)p.r(C)p.r(U)p.m(U)p.r(G)p.r(A)p.r(U)p.r(U)p.m(U)p.r(G)p.r(A)p.r(G)p.r(T)p.r(T)}$$$RNA1{StrandType:ss}|RNA2{StrandType:as}$,82
10,RNA1{r(C)p.r(U)p.r(A)p.r(A)p.r(G)p.r(G)p.r(A)p.r(C)p.r(C)p.r(U)p.r(A)p.r(A)p.r(C)p.r(A)p.r(A)p.[una](A)p.r(G)p.[una](U)p.[una](U)p.r(U)p.r(U)}|RNA2{r(A)p.r(A)p.r(C)p.r(U)p.r(U)p.r(U)p.r(G)p.r(U)p.r(U)p.r(A)p.r(G)p.r(G)p.r(U)p.r(C)p.r(C)p.r(U)p.r(U)p.r(A)p.r(G)p.r(U)p.r(U)}$$$RNA1{StrandType:ss}|RNA2{StrandType:as}$,70
11,RNA1{r(C)p.r(U)p.r(A)p.r(A)p.r(G)p.r(G)p.r(A)p.r(C)p.r(C)p.r(U)p.r(A)p.r(A)p.r(C)p.r(A)p.r(A)p.r(A)p.r(G)p.r(U)p.[una](U)p.r(U)p.r(U)}|RNA2{r(A)p.r(A)p.r(C)p.r(U)p.r(U)p.r(U)p.r(G)p.r(U)p.r(U)p.r(A)p.r(G)p.r(G)p.r(U)p.r(C)p.r(C)p.r(U)p.r(U)p.r(A)p.r(G)p.r(U)p.r(U)}$$$RNA1{StrandType:ss}|RNA2{StrandType:as}$,60
12,RNA1{r(C)p.r(U)p.r(A)p.r(G)p.r(A)p.r(G)p.r(G)p.r(A)p.r(U)p.r(C)p.r(U)p.r(U)p.r(G)p.r(A)p.r(A)p.r(G)p.r(A)p.r(C)p.r(C)p.r(T)p.r(T)}|RNA2{r(G)p.r(G)p.r(U)p.r(C)p.r(U)p.r(U)p.[fl2r](C)p.r(A)p.r(A)p.r(G)p.r(A)p.r(U)p.r(C)p.r(C)p.r(U)p.r(C)p.[fl2r](U)p.r(A)p.r(G)p.r(T)p.r(T)}$$$RNA1{StrandType:ss}|RNA2{StrandType:as}$,95
13,RNA1{r(C)p.r(U)p.r(C)p.m(C)p.r(C)p.m(C)p.r(A)p.r(G)p.r(U)p.m(C)p.r(U)p.r(C)p.r(U)p.r(C)p.r(U)p.m(U)p.r(A)p.r(A)p.r(A)p.r(T)p.r(T)}|RNA2{r(U)p.r(U)p.m(U)p.r(A)p.r(A)p.r(G)p.r(A)p.r(G)p.r(A)p.r(G)p.r(A)p.r(C)p.m(U)p.r(G)p.r(G)p.r(G)p.r(G)p.r(A)p.r(G)p.r(T)p.r(T)}$$$RNA1{StrandType:ss}|RNA2{StrandType:as}$,68
14,RNA1{r(C)p.r(U)p.r(C)p.m(U)p.r(G)p.r(G)p.r(C)p.r(C)p.r(U)p.r(U)p.r(U)p.r(C)p.r(U)p.r(C)p.r(U)p.r(C)p.m(U)p.r(A)p.r(G)p.r(T)p.r(T)}|RNA2{r(C)p.r(U)p.r(A)p.r(G)p.r(A)p.r(G)p.r(A)p.r(G)p.r(A)p.r(A)p.r(A)p.r(G)p.r(G)p.r(C)p.m(C)p.r(A)p.r(G)p.r(A)p.r(G)p.r(T)p.r(T)}$$$RNA1{StrandType:ss}|RNA2{StrandType:as}$,45
15,RNA1{r(C)p.r(U)p.r(C)p.r(A)p.r(A)p.r(A)p.r(U)p.r(C)p.r(A)p.r(A)p.r(G)p.r(G)p.r(C)p.r(C)p.r(G)p.r(G)p.r(A)p.r(G)p.r(U)p.r(T)p.r(T)}|RNA2{r(A)p.r(C)p.r(U)p.r(C)p.r(C)p.r(G)p.r(G)p.r(C)p.r(C)p.r(U)p.m(U)p.r(G)p.r(A)p.r(U)p.r(U)p.m(U)p.r(G)p.r(A)p.r(G)p.r(T)p.r(T)}$$$RNA1{StrandType:ss}|RNA2{StrandType:as}$,85
16,RNA1{r(C)p.r(U)p.r(C)p.r(C)p.r(C)p.r(C)p.r(A)p.r(G)p.r(U)p.r(C)p.r(U)p.r(C)p.r(U)p.r(C)p.r(U)p.r(U)p.m(A)p.r(A)p.r(A)p.r(T)p.r(T)}|RNA2{r(U)p.r(U)p.r(U)p.m(A)p.r(A)p.r(G)p.r(A)p.r(G)p.r(A)p.r(G)p.r(A)p.r(C)p.r(U)p.r(G)p.r(G)p.r(G)p.r(G)p.r(A)p.r(G)p.r(T)p.r(T)}$$$RNA1{StrandType:ss}|RNA2{StrandType:as}$,69
17,RNA1{r(C)p.r(U)p.r(C)p.r(C)p.r(G)p.r(A)p.m(C)p.m(A)p.r(G)p.r(A)p.m(U)p.r(G)p.r(A)p.r(A)p.r(G)p.r(G)p.r(A)p.r(A)p.r(A)p.r(T)p.r(T)}|RNA2{r(U)p.r(U)p.r(U)p.r(C)p.r(C)p.r(U)p.r(U)p.m(C)p.r(A)p.r(U)p.r(C)p.m(U)p.m(G)p.r(U)p.r(C)p.r(G)p.r(G)p.r(A)p.r(G)p.r(T)p.r(T)}$$$RNA1{StrandType:ss}|RNA2{StrandType:as}$,70
18,RNA1{r(C)p.r(U)p.r(C)p.r(C)p.r(G)p.r(A)p.r(C)p.r(A)p.r(G)p.r(A)p.m(U)p.r(G)p.r(A)p.r(A)p.r(G)p.r(G)p.r(A)p.r(A)p.r(A)p.r(T)p.r(T)}|RNA2{r(U)p.r(U)p.r(U)p.r(C)p.r(C)p.r(U)p.r(U)p.r(C)p.r(A)p.r(U)p.r(C)p.m(U)p.r(G)p.r(U)p.r(C)p.r(G)p.r(G)p.r(A)p.r(G)p.r(T)p.r(T)}$$$RNA1{StrandType:ss}|RNA2{StrandType:as}$,72
19,RNA1{r(C)p.r(U)p.r(C)p.r(C)p.r(U)p.r(U)p.m(C)p.r(A)p.r(U)p.r(U)p.r(C)p.m(C)p.r(A)p.r(G)p.r(C)p.r(C)p.m(U)p.r(A)p.r(U)p.r(T)p.r(T)}|RNA2{r(A)p.m(U)p.r(A)p.r(G)p.r(G)p.r(C)p.m(U)p.r(G)p.r(G)p.r(A)p.r(A)p.m(U)p.r(G)p.r(A)p.r(A)p.r(G)p.r(G)p.r(A)p.r(G)p.r(T)p.r(T)}$$$RNA1{StrandType:ss}|RNA2{StrandType:as}$,78
20,RNA1{r(C)p.r(U)p.r(C)p.r(C)p.r(U)p.r(U)p.r(C)p.r(A)p.r(U)p.r(U)p.r(C)p.r(C)p.r(A)p.r(G)p.r(C)p.r(C)p.m(U)p.r(A)p.r(U)p.r(T)p.r(T)}|RNA2{r(A)p.m(U)p.r(A)p.r(G)p.r(G)p.r(C)p.r(U)p.r(G)p.r(G)p.r(A)p.r(A)p.r(U)p.r(G)p.r(A)p.r(A)p.r(G)p.r(G)p.r(A)p.r(G)p.r(T)p.r(T)}$$$RNA1{StrandType:ss}|RNA2{StrandType:as}$,81
